According to ChEMBL document CHEMBL3991601, “The target landscape of clinical kinase drugs” (Science, 2017):
Calls of active or inactive are those of the source.

Tests used:
[1] = biological target: Cyclin-dependent kinase 3 (Homo sapiens, UniProt Q00526)
Scaffold protein ILK = biological target: T1, Scaffold protein ILK (Homo sapiens, UniProt Q13418)
T1 sequence (Q13418 whole entry): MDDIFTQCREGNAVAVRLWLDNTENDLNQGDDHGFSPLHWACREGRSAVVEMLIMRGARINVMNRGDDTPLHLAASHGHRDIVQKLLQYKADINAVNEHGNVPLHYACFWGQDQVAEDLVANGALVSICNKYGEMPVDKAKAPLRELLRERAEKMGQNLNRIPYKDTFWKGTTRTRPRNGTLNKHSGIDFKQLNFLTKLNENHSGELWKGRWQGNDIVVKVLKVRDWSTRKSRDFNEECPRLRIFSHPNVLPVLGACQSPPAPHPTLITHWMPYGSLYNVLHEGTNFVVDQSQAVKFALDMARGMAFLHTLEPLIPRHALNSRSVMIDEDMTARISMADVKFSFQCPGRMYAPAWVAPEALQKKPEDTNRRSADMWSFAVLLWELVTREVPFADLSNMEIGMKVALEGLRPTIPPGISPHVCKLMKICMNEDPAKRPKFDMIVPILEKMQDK

[2] = biological target: Mitogen-activated protein kinase kinase kinase kinase 1 (Homo sapiens, UniProt Q92918)
[3] = biological target: Myosin light chain kinase, smooth muscle (Homo sapiens, UniProt Q15746)
[4] = biological target: 26S proteasome regulatory subunit 6B (Homo sapiens, UniProt P43686)
[5] = biological target: T2, Ras-related protein Rab-10 (Homo sapiens, UniProt P61026)
T2 sequence (P61026 whole entry): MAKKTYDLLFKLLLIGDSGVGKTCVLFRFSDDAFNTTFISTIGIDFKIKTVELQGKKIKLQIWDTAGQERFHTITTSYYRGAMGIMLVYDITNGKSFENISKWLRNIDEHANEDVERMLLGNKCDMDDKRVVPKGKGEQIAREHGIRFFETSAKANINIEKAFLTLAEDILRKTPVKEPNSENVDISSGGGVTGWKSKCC

[6] = biological target: Structural maintenance of chromosomes protein 2 (Homo sapiens, UniProt O95347)
[7] = biological target: T3, STE20-related kinase adapter protein alpha (Homo sapiens, UniProt Q7RTN6)
T3 sequence (Q7RTN6 whole entry): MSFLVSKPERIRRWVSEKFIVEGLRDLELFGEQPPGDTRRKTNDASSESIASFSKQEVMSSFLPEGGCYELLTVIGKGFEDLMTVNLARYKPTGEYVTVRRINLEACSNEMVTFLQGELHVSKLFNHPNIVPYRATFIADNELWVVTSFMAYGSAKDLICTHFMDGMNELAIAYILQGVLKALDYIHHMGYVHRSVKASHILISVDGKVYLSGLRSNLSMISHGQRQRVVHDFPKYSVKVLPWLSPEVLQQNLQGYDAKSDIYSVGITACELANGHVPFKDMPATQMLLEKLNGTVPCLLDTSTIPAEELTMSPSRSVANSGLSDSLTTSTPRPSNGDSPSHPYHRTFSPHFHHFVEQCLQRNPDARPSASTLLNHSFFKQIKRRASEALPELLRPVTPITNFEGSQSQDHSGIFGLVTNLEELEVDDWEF

[8] = biological target: T4, Serine/threonine-protein kinase TBK1 (Homo sapiens, UniProt Q9UHD2)
T4 sequence (Q9UHD2 whole entry): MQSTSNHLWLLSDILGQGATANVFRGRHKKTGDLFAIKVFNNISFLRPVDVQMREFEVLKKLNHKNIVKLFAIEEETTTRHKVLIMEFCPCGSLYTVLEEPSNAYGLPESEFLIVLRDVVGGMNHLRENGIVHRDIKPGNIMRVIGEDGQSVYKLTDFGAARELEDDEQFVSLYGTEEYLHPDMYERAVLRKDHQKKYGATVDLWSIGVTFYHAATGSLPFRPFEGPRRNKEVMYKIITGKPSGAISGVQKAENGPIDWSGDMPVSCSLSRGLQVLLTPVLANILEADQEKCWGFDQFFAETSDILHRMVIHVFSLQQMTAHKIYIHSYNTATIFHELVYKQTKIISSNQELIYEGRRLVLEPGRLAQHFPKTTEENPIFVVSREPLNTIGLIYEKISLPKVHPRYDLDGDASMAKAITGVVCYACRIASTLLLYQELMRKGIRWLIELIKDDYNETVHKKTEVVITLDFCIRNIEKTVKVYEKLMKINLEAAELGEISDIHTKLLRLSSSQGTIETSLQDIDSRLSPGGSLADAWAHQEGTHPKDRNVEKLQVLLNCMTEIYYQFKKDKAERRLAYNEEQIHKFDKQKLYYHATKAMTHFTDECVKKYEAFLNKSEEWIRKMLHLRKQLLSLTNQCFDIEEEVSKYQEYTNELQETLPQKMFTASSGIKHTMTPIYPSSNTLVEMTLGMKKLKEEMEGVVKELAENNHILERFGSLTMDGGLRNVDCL

Activated CDC42 kinase 1 = Activated CDC42 kinase 1 (Homo sapiens, UniProt Q07912)
[9] = biological target: T5, Uncharacterized protein FLJ45252 (Homo sapiens, UniProt Q6ZSR9); settings: read-out: Kd apparent; k-562, colo 205, sk-n-be(2) and mv-4-11
T5 sequence (Q6ZSR9 whole entry): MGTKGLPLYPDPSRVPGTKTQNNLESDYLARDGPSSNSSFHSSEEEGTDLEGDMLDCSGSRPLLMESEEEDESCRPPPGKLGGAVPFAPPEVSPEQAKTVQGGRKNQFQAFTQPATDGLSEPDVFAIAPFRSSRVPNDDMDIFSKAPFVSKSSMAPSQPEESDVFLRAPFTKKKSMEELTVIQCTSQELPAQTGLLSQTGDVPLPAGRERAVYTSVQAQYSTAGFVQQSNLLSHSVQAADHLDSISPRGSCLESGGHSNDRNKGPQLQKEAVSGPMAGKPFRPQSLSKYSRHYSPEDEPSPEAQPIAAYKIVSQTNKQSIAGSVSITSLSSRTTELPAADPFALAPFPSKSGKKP

[10] = biological target: cAMP-dependent protein kinase type II-alpha regulatory subunit (Homo sapiens, UniProt P13861)
Also: in the data inactive means no Kd found up to 30 µM.

Sequence of Myosin light chain kinase, smooth muscle (Q15746 whole entry): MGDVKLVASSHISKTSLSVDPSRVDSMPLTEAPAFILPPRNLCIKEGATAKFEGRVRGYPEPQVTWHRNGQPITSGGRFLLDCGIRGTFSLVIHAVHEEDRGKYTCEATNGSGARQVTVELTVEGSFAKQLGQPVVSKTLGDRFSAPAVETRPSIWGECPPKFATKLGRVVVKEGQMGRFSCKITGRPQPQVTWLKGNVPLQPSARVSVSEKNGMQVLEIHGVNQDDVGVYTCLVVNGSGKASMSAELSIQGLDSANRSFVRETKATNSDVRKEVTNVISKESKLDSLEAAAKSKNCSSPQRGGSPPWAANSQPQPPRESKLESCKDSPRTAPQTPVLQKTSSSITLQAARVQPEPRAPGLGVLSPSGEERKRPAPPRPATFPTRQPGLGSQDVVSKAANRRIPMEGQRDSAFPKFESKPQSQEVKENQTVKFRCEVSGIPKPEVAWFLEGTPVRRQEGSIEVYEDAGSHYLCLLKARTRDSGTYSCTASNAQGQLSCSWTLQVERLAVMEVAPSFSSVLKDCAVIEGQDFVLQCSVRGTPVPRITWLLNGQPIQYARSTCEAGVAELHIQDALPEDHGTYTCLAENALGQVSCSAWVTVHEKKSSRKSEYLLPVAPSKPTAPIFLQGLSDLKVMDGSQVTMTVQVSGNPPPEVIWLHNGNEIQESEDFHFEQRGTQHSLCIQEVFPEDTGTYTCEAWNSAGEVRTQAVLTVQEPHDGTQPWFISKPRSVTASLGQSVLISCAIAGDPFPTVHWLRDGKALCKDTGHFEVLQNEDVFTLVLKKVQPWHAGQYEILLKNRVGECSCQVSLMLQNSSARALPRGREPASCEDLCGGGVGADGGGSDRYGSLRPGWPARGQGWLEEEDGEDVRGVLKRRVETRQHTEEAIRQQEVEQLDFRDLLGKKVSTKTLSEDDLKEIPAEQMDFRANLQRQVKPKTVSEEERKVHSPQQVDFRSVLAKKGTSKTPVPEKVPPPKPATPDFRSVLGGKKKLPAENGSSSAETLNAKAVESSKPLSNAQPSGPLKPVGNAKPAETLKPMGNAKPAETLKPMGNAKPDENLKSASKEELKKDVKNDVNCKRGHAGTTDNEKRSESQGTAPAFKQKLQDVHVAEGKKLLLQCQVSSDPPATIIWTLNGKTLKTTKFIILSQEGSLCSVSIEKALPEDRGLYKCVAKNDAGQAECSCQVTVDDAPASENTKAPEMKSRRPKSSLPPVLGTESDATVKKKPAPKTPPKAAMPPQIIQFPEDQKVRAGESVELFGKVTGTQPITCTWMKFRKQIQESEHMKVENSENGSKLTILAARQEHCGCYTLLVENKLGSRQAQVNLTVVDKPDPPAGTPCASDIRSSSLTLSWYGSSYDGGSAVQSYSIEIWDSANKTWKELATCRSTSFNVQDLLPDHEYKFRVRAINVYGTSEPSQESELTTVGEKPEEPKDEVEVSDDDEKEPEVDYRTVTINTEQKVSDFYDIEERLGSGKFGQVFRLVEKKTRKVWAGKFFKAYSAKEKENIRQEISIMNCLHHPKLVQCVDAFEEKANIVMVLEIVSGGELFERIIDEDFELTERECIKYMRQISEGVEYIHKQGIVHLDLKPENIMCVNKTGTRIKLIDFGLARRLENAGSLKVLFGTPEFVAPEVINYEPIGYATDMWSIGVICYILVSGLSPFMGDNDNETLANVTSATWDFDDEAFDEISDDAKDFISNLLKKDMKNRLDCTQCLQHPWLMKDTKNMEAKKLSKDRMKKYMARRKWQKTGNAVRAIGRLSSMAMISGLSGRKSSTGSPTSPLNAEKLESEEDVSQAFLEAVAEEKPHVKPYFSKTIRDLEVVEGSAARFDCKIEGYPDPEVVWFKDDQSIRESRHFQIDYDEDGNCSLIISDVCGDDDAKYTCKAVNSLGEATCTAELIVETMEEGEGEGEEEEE
Sequence of Mitogen-activated protein kinase kinase kinase kinase 1 (Q92918 whole entry): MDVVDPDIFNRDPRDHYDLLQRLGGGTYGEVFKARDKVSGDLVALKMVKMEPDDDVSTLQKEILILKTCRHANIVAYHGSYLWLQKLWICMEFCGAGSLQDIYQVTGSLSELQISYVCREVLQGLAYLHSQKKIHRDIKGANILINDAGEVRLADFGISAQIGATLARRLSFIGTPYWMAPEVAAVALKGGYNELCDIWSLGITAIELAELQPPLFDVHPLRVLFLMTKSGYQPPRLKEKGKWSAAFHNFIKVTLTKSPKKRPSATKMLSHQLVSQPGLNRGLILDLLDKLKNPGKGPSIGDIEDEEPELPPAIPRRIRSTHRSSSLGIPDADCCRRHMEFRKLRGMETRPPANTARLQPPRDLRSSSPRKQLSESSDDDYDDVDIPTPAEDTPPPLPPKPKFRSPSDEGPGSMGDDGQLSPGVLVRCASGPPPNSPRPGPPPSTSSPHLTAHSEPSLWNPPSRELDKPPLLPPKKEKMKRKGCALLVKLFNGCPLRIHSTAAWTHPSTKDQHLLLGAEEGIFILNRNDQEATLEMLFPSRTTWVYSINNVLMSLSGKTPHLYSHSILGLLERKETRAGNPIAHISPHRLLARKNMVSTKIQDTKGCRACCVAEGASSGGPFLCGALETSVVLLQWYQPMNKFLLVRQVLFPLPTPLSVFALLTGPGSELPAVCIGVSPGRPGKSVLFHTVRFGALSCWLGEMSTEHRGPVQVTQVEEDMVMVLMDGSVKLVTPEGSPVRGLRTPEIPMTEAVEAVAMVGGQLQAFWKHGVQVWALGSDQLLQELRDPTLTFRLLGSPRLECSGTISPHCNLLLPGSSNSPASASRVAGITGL
Sequence of Cyclin-dependent kinase 3 (Q00526 whole entry): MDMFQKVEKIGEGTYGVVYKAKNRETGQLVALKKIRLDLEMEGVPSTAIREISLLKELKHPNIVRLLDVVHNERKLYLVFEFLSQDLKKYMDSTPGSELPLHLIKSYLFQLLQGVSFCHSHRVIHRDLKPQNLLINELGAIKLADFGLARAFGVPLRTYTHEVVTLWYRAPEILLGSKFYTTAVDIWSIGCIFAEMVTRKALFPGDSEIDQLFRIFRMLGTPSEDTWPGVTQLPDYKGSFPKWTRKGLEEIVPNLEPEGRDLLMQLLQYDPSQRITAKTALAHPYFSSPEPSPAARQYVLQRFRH
Sequence of Structural maintenance of chromosomes protein 2 (O95347 whole entry): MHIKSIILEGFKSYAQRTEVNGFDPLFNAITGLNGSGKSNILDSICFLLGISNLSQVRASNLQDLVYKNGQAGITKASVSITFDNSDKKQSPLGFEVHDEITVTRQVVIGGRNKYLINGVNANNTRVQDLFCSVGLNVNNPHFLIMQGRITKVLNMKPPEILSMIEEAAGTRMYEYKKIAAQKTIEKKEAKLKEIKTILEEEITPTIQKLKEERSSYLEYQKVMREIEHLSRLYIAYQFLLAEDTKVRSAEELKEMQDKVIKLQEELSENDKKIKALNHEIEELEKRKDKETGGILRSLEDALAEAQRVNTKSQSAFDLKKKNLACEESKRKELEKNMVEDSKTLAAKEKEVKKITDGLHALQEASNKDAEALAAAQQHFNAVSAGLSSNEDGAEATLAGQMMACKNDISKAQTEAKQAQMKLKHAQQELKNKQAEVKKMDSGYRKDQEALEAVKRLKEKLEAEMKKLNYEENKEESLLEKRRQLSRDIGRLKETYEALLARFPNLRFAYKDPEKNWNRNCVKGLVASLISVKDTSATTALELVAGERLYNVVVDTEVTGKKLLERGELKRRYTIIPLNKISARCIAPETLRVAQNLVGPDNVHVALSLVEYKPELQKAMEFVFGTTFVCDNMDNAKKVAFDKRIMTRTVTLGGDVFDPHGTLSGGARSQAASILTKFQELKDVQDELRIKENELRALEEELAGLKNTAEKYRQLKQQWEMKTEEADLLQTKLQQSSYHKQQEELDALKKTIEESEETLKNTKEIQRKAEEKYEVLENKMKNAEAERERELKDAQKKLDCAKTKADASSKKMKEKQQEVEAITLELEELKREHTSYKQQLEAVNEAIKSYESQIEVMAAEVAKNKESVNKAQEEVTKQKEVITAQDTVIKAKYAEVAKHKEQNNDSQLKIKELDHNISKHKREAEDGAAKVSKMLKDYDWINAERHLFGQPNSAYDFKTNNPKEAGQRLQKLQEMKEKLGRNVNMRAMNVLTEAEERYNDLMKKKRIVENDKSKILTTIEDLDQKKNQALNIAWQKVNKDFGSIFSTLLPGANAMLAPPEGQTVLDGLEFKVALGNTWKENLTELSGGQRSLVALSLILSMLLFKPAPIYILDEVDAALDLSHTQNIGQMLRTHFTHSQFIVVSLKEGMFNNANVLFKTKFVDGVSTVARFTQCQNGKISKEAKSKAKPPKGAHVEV
Sequence of cAMP-dependent protein kinase type II-alpha regulatory subunit (P13861 whole entry): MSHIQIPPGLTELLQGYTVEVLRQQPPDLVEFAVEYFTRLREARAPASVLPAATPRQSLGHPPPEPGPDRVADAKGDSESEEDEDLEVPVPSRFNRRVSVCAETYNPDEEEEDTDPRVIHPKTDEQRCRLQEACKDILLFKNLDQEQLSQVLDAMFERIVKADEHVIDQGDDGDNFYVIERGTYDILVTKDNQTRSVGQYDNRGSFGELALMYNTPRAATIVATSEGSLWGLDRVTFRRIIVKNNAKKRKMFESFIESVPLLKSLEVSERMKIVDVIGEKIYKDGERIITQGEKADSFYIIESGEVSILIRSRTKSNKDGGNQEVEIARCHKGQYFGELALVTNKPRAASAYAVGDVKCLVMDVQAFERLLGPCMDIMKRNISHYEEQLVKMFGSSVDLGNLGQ
Sequence of 26S proteasome regulatory subunit 6B (P43686 whole entry): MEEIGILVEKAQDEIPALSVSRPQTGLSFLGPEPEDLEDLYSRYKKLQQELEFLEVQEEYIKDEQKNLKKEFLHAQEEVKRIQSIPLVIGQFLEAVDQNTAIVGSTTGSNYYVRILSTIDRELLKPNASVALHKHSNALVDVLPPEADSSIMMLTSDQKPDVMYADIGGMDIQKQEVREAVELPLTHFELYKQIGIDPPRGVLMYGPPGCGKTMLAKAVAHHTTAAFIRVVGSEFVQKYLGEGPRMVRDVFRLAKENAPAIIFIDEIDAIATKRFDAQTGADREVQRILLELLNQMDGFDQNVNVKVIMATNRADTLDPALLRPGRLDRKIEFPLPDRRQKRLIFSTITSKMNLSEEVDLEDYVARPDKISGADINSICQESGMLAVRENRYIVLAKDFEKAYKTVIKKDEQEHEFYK

C[C@@H](Oc1cc(C(=O)Nc2ccc(C(=O)N3CCN(C)CC3)cc2)nnc1N)c1c(Cl)ccc(F)c1Cl
Kd [1]: > 30 µM (inactive)
Kd (Scaffold protein ILK): > 30 µM (inactive)
Kd [2]: > 30 µM (inactive)
Kd [3]: > 30 µM (inactive)
Kd [4]: > 30 µM (inactive)
Kd [5]: > 30 µM (inactive)
Kd [6]: > 30 µM (inactive)
Kd [7]: > 30 µM (inactive)
Kd [8]: > 30 µM (inactive)
Kd (Activated CDC42 kinase 1): > 30 µM (inactive)
Kd [9]: 3.36 µM (active)

C[C@H]1CNCCCN1S(=O)(=O)c1cccc2cncc(F)c12
Kd [1]: > 30 µM (inactive)
Kd (Scaffold protein ILK): > 30 µM (inactive)
Kd [2]: > 30 µM (inactive)
Kd [3]: > 30 µM (inactive)
Kd [10]: > 30 µM (inactive)
Kd [4]: > 30 µM (inactive)
Kd [5]: > 30 µM (inactive)
Kd [6]: > 30 µM (inactive)
Kd [8]: > 30 µM (inactive)
Kd (Activated CDC42 kinase 1): > 30 µM (inactive)
Kd [9]: > 30 µM (inactive)

CCNC(=O)C#Cc1ccc2c(c1)NC(=O)/C2=C(\Nc1ccc(CN(C)C)cc1)c1ccccc1
Kd [1]: 0.897 µM (active)
Kd (Scaffold protein ILK): > 30 µM (inactive)
Kd [2]: 0.875 µM (active)
Kd [3]: > 30 µM (inactive)
Kd [10]: > 30 µM (inactive)
Kd [4]: > 30 µM (inactive)
Kd [5]: > 30 µM (inactive)
Kd [6]: > 30 µM (inactive)
Kd [7]: > 30 µM (inactive)
Kd [8]: 0.759 µM (active)
Kd (Activated CDC42 kinase 1): 1.55 µM (active)
Kd [9]: > 30 µM (inactive)

C=CC(=O)N1CCC[C@H](n2c(=O)n(-c3ccc(Oc4ccccc4)cc3)c3c(N)ncnc32)C1
Kd [1]: > 30 µM (inactive)
Kd (Scaffold protein ILK): > 30 µM (inactive)
Kd [2]: > 30 µM (inactive)
Kd [3]: > 30 µM (inactive)
Kd [10]: > 30 µM (inactive)
Kd [4]: > 30 µM (inactive)
Kd [5]: > 30 µM (inactive)
Kd [6]: > 30 µM (inactive)
Kd [7]: > 30 µM (inactive)
Kd [8]: > 30 µM (inactive)
Kd (Activated CDC42 kinase 1): > 30 µM (inactive)
Kd [9]: > 30 µM (inactive)

Cc1nc2cc(-c3nn(C(C)C)c4ncnc(N)c34)ccc2o1
Kd [1]: > 30 µM (inactive)
Kd (Scaffold protein ILK): > 30 µM (inactive)
Kd [2]: > 30 µM (inactive)
Kd [3]: > 30 µM (inactive)
Kd [10]: > 30 µM (inactive)
Kd [4]: > 30 µM (inactive)
Kd [5]: > 30 µM (inactive)
Kd [6]: > 30 µM (inactive)
Kd [7]: > 30 µM (inactive)
Kd [8]: > 30 µM (inactive)
Kd (Activated CDC42 kinase 1): > 30 µM (inactive)
Kd [9]: > 30 µM (inactive)

COCc1c(-c2ccc(NC(=O)Nc3cc(C(F)(F)F)ccc3F)c(F)c2)c2c(N)ncnn2c1CN1CCOCC1
Kd [1]: > 30 µM (inactive)
Kd (Scaffold protein ILK): > 30 µM (inactive)
Kd [2]: > 30 µM (inactive)
Kd [3]: > 30 µM (inactive)
Kd [10]: > 30 µM (inactive)
Kd [4]: > 30 µM (inactive)
Kd [5]: > 30 µM (inactive)
Kd [6]: > 30 µM (inactive)
Kd [7]: > 30 µM (inactive)
Kd [8]: > 30 µM (inactive)
Kd (Activated CDC42 kinase 1): > 30 µM (inactive)
Kd [9]: > 30 µM (inactive)

Nc1ncnc2c1c(-c1cccc(OCc3ccccc3)c1)cn2[C@H]1C[C@@H](CN2CCC2)C1 [AEW-541]
Kd [1]: > 30 µM (inactive)
Kd (Scaffold protein ILK): > 30 µM (inactive)
Kd [2]: > 30 µM (inactive)
Kd [3]: > 30 µM (inactive)
Kd [10]: > 30 µM (inactive)
Kd [4]: > 30 µM (inactive)
Kd [5]: > 30 µM (inactive)
Kd [6]: > 30 µM (inactive)
Kd [7]: > 30 µM (inactive)
Kd [8]: > 30 µM (inactive)
Kd (Activated CDC42 kinase 1): > 30 µM (inactive)
Kd [9]: > 30 µM (inactive)

C=CC(=O)Nc1cc2c(Nc3ccc(F)c(Cl)c3)ncnc2cc1C#CC(C)(C)N1CCN(C)CC1 [AV-412 FREE BASE]
Kd [1]: > 30 µM (inactive)
Kd (Scaffold protein ILK): > 30 µM (inactive)
Kd [2]: > 30 µM (inactive)
Kd [3]: > 30 µM (inactive)
Kd [10]: > 30 µM (inactive)
Kd [4]: > 30 µM (inactive)
Kd [5]: > 30 µM (inactive)
Kd [6]: > 30 µM (inactive)
Kd [7]: > 30 µM (inactive)
Kd [8]: > 30 µM (inactive)
Kd (Activated CDC42 kinase 1): > 30 µM (inactive)
Kd [9]: > 30 µM (inactive)

COc1cc([C@@H]2c3cc4c(cc3[C@H](O)[C@H]3COC(=O)[C@@H]23)OCO4)cc(OC)c1OC [AXL-1717]
Kd [1]: > 30 µM (inactive)
Kd (Scaffold protein ILK): > 30 µM (inactive)
Kd [2]: > 30 µM (inactive)
Kd [3]: > 30 µM (inactive)
Kd [10]: > 30 µM (inactive)
Kd [4]: > 30 µM (inactive)
Kd [5]: > 30 µM (inactive)
Kd [6]: > 30 µM (inactive)
Kd [7]: > 30 µM (inactive)
Kd [8]: > 30 µM (inactive)
Kd (Activated CDC42 kinase 1): > 30 µM (inactive)
Kd [9]: > 30 µM (inactive)

Cc1nc2cc(-n3ncc(C(=O)c4cc5ccccc5[nH]4)c3N)ccc2[nH]1 [FGFR INHIBITOR DEBIO 1347]
Kd [1]: > 30 µM (inactive)
Kd (Scaffold protein ILK): > 30 µM (inactive)
Kd [2]: > 30 µM (inactive)
Kd [3]: > 30 µM (inactive)
Kd [10]: > 30 µM (inactive)
Kd [4]: > 30 µM (inactive)
Kd [5]: > 30 µM (inactive)
Kd [6]: > 30 µM (inactive)
Kd [8]: > 30 µM (inactive)
Kd (Activated CDC42 kinase 1): > 30 µM (inactive)
Kd [9]: > 30 µM (inactive)

O=C(Nc1cc(C(F)(F)F)cc(C(F)(F)F)c1)c1cc(Cl)ccc1O [IMD-0354]
Kd [1]: > 30 µM (inactive)
Kd (Scaffold protein ILK): > 30 µM (inactive)
Kd [2]: > 30 µM (inactive)
Kd [3]: 3.22 µM
Kd [10]: > 30 µM (inactive)
Kd [4]: > 30 µM (inactive)
Kd [6]: > 30 µM (inactive)
Kd [7]: > 30 µM (inactive)
Kd [8]: > 30 µM (inactive)
Kd (Activated CDC42 kinase 1): > 30 µM (inactive)
Kd [9]: > 30 µM (inactive)

CCCCCCCCCCCCCCCCCCOP(=O)([O-])OC1CC[N+](C)(C)CC1 [PERIFOSINE]
Kd [1]: > 30 µM (inactive)
Kd (Scaffold protein ILK): > 30 µM (inactive)
Kd [2]: > 30 µM (inactive)
Kd [3]: > 30 µM (inactive)
Kd [4]: > 30 µM (inactive)
Kd [5]: > 30 µM (inactive)
Kd [6]: > 30 µM (inactive)
Kd [7]: > 30 µM (inactive)
Kd [8]: > 30 µM (inactive)
Kd (Activated CDC42 kinase 1): > 30 µM (inactive)
Kd [9]: > 30 µM (inactive)

C[C@@H](N)c1ccc(C(=O)Nc2ccnc3[nH]ccc23)cc1 [Y-39983]
Kd [1]: > 30 µM (inactive)
Kd (Scaffold protein ILK): > 30 µM (inactive)
Kd [2]: > 30 µM (inactive)
Kd [3]: > 30 µM (inactive)
Kd [4]: > 30 µM (inactive)
Kd [5]: > 30 µM (inactive)
Kd [6]: > 30 µM (inactive)
Kd [7]: > 30 µM (inactive)
Kd [8]: > 30 µM (inactive)
Kd (Activated CDC42 kinase 1): > 30 µM (inactive)
Kd [9]: 0.106 µM (active)
